This note sets out measurements from patent US20240246942A1, “KINASE INHIBITORS FOR THE TREATMENT OF NEURODEGENERATIVE DISEASES” (priority 2020, published 2024).

Common to all, as to test: biochemical
Assay [1] addresses T1, panel of 374 wild-type kinases (Homo sapiens, UniProt O00311).
T1 construct: purchased Reaction Biology Corporation
The conditions noted are these: read-out: % Enzyme Activity (relative to DMSO controls), CDC7/DBF4.

Assay [2] concerns the target T2, panel of 374 wild-type kinases (Homo sapiens, UniProt O14757).
T2 construct: purchased Reaction Biology Corporation
T2 sequence (O14757 1-476): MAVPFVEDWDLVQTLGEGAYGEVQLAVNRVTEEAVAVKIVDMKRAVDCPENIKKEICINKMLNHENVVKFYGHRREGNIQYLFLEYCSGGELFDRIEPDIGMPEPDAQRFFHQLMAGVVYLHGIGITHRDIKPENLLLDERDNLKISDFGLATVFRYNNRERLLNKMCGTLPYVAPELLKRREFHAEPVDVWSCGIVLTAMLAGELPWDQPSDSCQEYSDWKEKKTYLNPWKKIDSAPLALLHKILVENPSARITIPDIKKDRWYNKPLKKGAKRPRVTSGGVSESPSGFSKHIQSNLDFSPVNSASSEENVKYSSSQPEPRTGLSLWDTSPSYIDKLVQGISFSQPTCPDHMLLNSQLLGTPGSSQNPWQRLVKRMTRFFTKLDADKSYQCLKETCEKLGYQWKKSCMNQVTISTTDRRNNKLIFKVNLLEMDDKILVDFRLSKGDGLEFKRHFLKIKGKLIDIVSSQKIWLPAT
The conditions noted are these: read-out: % Enzyme Activity (relative to DMSO controls), CHK1.

The target in assay [3] is T3, panel of 374 wild-type kinases (Homo sapiens, UniProt P06213).
T3 construct: purchased Reaction Biology Corporation
Conditions: read-out: % Enzyme Activity (relative to DMSO controls), IR.

Assay [4] has as its target T4, panel of 374 wild-type kinases (Homo sapiens, UniProt P07333).
T4 construct: purchased Reaction Biology Corporation
Conditions: read-out: % Enzyme Activity (relative to DMSO controls), FMS.

Assay [5] concerns the target T5, panel of 374 wild-type kinases (Homo sapiens, UniProt P08069).
T5 construct: purchased Reaction Biology Corporation
The conditions noted are these: read-out: % Enzyme Activity (relative to DMSO controls), IGF1R.

In assay [6] the target is T6, panel of 374 wild-type kinases (Homo sapiens, UniProt P09619).
T6 construct: purchased Reaction Biology Corporation
The conditions noted are these: read-out: % Enzyme Activity (relative to DMSO controls), kinase PDGFRb.

Assay [7] has as its target T7, panel of 374 wild-type kinases (Homo sapiens, UniProt P11802).
T7 construct: purchased Reaction Biology Corporation

Assay [8] concerns the target T8, panel of 374 wild-type kinases (Homo sapiens, UniProt P17948).
T8 construct: purchased Reaction Biology Corporation
The conditions noted are these: read-out: % Enzyme Activity (relative to DMSO controls), FLT1/VEGFR1.

Assay [9] has as its target T9, panel of 374 wild-type kinases (Homo sapiens, UniProt P52564).
T9 construct: purchased Reaction Biology Corporation
T9 sequence (P52564 1-334): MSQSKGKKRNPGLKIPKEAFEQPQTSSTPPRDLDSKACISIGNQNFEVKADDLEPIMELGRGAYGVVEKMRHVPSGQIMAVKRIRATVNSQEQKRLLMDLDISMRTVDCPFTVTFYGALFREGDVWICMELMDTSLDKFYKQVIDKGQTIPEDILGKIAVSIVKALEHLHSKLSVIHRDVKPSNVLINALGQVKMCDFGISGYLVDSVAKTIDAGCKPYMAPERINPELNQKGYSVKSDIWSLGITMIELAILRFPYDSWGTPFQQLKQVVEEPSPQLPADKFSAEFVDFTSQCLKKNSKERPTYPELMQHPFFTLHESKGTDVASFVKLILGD
The conditions noted are these: read-out: % Enzyme Activity (relative to DMSO controls), MKK6.

For assay [10], the target named is T10, panel of 374 wild-type kinases (Homo sapiens, UniProt P54764).
T10 construct: purchased Reaction Biology Corporation
Conditions: read-out: % Enzyme Activity (relative to DMSO controls), EPHA4.

In assay [11] the target is T11, panel of 374 wild-type kinases (Homo sapiens, UniProt Q14289).
T11 construct: purchased Reaction Biology Corporation
Conditions: read-out: % Enzyme Activity (relative to DMSO controls), kinase PYK2.

The target of assay [12] is T12, panel of 374 wild-type kinases (Homo sapiens, UniProt Q6IQ55).
T12 construct: purchased Reaction Biology Corporation
Conditions: read-out: % Enzyme Activity (relative to DMSO controls), kinase TTBK2.

Assay [13] addresses T13, panel of 374 wild-type kinases (Homo sapiens, UniProt Q8IW41).
T13 construct: purchased Reaction Biology Corporation
T13 sequence (Q8IW41 1-473): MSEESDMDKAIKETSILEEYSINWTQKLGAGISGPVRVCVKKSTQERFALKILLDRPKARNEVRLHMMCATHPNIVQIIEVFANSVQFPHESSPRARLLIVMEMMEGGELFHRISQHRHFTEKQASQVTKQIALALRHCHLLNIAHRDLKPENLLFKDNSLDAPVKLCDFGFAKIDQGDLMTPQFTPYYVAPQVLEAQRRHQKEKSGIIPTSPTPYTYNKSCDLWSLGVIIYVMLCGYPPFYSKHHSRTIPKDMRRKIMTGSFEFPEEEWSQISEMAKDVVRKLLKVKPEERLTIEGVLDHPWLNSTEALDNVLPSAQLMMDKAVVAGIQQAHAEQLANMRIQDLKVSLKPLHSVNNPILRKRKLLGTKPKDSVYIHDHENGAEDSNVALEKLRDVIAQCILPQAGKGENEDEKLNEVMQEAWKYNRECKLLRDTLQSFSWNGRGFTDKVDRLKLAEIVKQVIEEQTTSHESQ
Conditions: read-out: % Enzyme Activity (relative to DMSO controls), MAPKAPK5/PRAK.

Assay [14] concerns the target T14, panel of 374 wild-type kinases (Homo sapiens, UniProt Q96GD4).
T14 construct: purchased Reaction Biology Corporation
The conditions noted are these: read-out: % Enzyme Activity (relative to DMSO controls), Aurora B.

Assay [15] concerns the target T15, panel of 374 wild-type kinases (Homo sapiens, UniProt Q9BYP7).
T15 construct: purchased Reaction Biology Corporation
Conditions: read-out: % Enzyme Activity (relative to DMSO controls), kinase WNK3.

Assay [16] has as its target T16, panel of 374 wild-type kinases (Homo sapiens, UniProt Q9H4B4).
T16 construct: purchased Reaction Biology Corporation
Conditions: read-out: % Enzyme Activity (relative to DMSO controls), kinase PLK3.

Where [17] appears, read: read-out: % Enzyme Activity (relative to DMSO controls), CDK4/cyclin D1.
[18] abbreviates: read-out: % Enzyme Activity (relative to DMSO controls), CDK4/cyclin D3.

Where two headings read alike, the source gives them in different places.

T12 sequence (Q6IQ55 whole entry): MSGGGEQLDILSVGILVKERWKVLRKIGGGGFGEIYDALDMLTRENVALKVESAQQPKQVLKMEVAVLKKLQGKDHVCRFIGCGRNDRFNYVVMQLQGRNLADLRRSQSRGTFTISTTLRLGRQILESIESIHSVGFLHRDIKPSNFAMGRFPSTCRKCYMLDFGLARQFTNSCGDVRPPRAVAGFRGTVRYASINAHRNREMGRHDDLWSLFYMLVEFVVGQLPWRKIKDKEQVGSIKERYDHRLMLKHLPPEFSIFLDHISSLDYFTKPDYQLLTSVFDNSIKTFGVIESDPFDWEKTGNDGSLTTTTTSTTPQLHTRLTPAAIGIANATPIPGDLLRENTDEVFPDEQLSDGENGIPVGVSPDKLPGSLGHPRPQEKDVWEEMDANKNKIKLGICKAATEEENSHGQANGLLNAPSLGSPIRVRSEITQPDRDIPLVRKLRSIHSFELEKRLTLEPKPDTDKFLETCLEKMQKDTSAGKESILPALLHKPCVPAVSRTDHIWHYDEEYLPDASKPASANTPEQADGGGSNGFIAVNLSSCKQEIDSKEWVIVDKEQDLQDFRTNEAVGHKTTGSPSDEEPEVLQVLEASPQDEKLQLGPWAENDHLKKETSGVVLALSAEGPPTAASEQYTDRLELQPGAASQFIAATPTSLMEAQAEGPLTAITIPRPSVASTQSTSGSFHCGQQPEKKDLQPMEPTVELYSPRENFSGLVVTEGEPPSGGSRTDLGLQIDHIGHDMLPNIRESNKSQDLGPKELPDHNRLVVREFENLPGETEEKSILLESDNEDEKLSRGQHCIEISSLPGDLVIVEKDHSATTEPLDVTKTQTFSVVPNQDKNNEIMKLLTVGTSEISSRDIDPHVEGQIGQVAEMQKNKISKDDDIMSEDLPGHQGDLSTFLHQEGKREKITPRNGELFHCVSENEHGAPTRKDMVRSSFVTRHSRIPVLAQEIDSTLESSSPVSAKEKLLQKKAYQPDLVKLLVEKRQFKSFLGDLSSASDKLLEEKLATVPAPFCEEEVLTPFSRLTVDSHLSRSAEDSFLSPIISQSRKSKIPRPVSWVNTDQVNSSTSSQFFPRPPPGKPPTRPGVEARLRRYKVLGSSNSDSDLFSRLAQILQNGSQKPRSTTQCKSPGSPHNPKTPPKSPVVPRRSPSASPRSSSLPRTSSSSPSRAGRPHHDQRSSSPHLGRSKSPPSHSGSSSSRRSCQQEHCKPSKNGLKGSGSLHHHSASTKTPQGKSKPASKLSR
T15 sequence (Q9BYP7 whole entry): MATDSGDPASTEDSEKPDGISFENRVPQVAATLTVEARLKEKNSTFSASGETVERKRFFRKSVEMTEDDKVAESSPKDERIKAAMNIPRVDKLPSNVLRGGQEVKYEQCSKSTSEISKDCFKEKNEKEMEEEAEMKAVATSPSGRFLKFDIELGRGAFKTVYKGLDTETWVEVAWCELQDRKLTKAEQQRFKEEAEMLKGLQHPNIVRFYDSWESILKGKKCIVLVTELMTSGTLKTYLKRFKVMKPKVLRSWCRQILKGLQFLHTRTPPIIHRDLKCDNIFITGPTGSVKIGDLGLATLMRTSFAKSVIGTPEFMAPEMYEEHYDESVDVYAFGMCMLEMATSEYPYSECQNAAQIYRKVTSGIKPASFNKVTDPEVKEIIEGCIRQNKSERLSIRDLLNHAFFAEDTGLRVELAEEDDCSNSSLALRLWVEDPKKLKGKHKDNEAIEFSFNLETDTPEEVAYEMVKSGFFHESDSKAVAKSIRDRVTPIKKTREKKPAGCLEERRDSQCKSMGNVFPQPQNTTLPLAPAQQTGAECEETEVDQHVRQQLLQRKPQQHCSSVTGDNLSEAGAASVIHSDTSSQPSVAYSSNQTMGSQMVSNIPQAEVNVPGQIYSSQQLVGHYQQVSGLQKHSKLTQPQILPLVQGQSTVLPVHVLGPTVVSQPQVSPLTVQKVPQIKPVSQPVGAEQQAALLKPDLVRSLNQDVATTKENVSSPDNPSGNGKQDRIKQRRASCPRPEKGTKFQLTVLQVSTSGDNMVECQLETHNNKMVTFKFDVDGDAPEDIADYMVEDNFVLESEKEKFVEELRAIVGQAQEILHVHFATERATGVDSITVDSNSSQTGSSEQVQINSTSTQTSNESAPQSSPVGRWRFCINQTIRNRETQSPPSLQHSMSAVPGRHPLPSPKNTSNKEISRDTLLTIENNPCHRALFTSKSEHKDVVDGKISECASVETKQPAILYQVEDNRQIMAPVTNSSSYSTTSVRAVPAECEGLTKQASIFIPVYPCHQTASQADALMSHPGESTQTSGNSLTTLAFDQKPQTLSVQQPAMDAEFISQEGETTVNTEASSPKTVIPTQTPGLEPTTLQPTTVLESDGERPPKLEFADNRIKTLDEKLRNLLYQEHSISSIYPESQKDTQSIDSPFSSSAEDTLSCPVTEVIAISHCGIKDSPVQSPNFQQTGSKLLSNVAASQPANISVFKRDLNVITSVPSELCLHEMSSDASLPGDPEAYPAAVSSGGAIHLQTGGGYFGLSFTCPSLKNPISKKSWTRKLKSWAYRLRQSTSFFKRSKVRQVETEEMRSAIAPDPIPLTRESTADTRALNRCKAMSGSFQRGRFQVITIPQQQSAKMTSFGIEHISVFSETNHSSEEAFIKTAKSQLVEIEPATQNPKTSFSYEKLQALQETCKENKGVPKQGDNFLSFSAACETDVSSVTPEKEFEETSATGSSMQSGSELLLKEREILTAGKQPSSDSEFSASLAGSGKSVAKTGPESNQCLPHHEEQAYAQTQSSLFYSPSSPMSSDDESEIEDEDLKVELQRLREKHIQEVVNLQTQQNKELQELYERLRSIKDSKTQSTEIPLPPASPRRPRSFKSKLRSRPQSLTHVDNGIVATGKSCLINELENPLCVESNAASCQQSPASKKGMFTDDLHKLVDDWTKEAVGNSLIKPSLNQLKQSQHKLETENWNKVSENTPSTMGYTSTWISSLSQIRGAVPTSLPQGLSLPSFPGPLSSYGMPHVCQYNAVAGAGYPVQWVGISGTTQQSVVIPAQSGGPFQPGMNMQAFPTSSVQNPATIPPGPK
T7 sequence (P11802 whole entry): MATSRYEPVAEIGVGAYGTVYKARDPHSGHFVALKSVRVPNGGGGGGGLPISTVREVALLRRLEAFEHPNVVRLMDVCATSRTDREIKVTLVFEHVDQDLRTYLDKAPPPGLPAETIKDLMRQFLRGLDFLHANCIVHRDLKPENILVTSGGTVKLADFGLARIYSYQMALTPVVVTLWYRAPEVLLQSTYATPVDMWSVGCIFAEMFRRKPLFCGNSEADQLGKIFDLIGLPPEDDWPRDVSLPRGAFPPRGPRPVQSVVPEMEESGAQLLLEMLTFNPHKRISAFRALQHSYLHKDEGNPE
T11 sequence (Q14289 whole entry): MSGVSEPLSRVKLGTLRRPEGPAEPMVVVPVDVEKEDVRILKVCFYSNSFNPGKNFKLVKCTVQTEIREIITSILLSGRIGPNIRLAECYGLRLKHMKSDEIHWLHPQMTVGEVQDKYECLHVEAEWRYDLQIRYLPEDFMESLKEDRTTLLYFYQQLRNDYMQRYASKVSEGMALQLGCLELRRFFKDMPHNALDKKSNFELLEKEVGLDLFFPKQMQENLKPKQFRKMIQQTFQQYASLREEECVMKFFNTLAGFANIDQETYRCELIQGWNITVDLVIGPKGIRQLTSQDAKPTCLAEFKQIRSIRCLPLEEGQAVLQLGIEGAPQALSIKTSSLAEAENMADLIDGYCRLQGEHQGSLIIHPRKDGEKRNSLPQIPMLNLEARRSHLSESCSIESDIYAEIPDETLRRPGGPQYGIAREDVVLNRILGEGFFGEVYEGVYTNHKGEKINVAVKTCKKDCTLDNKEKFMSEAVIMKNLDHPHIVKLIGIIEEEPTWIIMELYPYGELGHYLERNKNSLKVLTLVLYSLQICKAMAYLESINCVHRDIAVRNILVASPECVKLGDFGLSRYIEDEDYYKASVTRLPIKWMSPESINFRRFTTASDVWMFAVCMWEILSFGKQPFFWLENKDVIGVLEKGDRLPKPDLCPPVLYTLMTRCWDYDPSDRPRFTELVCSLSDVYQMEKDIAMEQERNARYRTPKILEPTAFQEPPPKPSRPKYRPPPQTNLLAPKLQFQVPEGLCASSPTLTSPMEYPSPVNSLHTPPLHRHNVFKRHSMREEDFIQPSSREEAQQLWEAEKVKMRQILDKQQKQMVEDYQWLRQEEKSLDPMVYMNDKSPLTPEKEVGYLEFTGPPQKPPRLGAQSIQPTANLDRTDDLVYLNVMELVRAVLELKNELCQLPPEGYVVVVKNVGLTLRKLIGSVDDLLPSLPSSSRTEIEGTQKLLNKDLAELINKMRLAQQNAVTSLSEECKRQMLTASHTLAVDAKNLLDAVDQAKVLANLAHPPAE
T16 sequence (Q9H4B4 whole entry): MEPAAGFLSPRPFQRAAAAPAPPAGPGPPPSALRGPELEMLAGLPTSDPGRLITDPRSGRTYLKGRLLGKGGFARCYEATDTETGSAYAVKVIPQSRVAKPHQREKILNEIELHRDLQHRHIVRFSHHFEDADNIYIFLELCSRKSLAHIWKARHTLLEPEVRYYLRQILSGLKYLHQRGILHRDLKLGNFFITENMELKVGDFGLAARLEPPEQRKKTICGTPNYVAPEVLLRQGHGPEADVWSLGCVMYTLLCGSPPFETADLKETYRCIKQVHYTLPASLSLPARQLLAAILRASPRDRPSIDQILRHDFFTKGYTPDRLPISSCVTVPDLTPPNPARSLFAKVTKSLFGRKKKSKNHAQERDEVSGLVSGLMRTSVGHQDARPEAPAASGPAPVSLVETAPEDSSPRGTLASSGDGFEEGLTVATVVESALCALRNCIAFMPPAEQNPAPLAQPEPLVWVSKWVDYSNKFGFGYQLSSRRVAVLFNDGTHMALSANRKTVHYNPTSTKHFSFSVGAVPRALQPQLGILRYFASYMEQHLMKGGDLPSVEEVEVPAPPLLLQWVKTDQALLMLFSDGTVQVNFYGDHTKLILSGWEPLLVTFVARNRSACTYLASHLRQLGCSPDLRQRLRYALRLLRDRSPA

On to `O=C(Nc1cnn(-c2csc(C(=O)NC3COC3)c2)c1)Nc1ccccc1Cl` [Compound 17, 4-(4-(3-(2-chlorophenyl)ureido)-1H-pyrazol-1-yl)-N-(oxetan-3-yl)thiophene-2-carboxamide], for which the remaining activity at 5 µM was 111% in [1]; 98.7% in assay [2]; 98.4% in assay [3]; 105% in [4]; 95.8% in assay [5]; 107% in assay [6]. Moreover, the remaining activity at 5 µM in assay [7] (setting [17]) worked out at 92.2%; in assay [7] (setting [18]), 98.2%; in assay [8] it was 101%; in [9], 96.4%; in assay [10] it was 100%; in assay [11], 93.5%. Further, the remaining activity at 5 µM in assay [12] came to 107%; in [13], 92.8%; in assay [14] it was 93%; in assay [15] it was 99.5%; in assay [16], 96.1%.
Turning to `O=C(Nc1cnn(-c2csc(C(=O)NC3COC3)c2)c1)Nc1c(F)cccc1Cl` [Compound 25, 4-(4-(3-(2-chloro-6-fluorophenyl)ureido)-1H-pyrazol-1-yl)-N-(oxetan-3-yl)thiophene-2-carboxamide], the remaining activity at 5 µM worked out at 84.3% in [1]; 141% in assay [2]; 102% in assay [3]; 98.9% in assay [4]; 94.9% in assay [5]; 101% in [6]. Also, the remaining activity at 5 µM in [7] (setting [17]) was 90.3%; in assay [7] (setting [18]), 79.4%; in assay [8], 86.1%; in assay [9], 94.4%; in assay [10], 89.1%; in [11] it was 91%. Besides, the remaining activity at 5 µM worked out at 104% in [12]; 99.7% in assay [13]; 69.8% in [14]; 91.8% in assay [15]; 96% in assay [16].
As for `Cc1sc(C(=O)NC2COC2)cc1-n1cc(NC(=O)Nc2c(F)cccc2Cl)cn1` [Compound 27, 4-(4-(3-(2-chloro-6-fluorophenyl)ureido)-1H-pyrazol-1-yl)-5-methyl-N-(oxetan-3-yl)thiophene-2-carboxamide], the remaining activity at 10 µM in assay [1] (10 uM) came to 107%; in assay [2] (10 uM), 118%; in assay [3] (10 uM) it was 85.5%; in assay [4] (10 uM) it was 103%; in [5] (10 uM), 102%; in [6] (10 uM), 97.9%. The remaining activity at 10 µM in [7] (setting [17]) turned out to be 78%; in assay [7] (setting [18]), 96.5%; in [8] (10 uM), 84.1%; in [9] (10 uM), 86.4%; in assay [10] (10 uM), 116%; in assay [11] (10 uM), 104%. In addition, the remaining activity at 10 µM in [12] (10 uM) worked out at 97.6%; in [13] (10 uM), 96.5%; in assay [14] (10 uM), 96.4%; in assay [15] (10 uM), 102%; in [16] (10 uM) it was 102%.
